According to the RepoRT retention time repository (doi:10.1007/s00216-013-6954-6):

What was measured:
[1] = RP, Waters ACQUITY UPLC HSS T3, 100 × 1 mm, 1.8 µm; A: water + 0.1% formic acid, pH 3; B: acetonitrile + 0.1% formic acid, pH 3; gradient (min/%B) 0/5 1/5 16/95 18/95 20/5; details: stereoisomer not certain
[2] = RP, Waters ACQUITY UPLC HSS T3, 150 × 2.1 mm, 1.8 µm; A: water + 0.1% formic acid; B: acetonitrile + 0.1% formic acid; gradient (min/%B) 0/5 1/5 16/95 18/95; details: stereoisomer not certain

Row | LC retention time [1] | LC retention time [2] | Compound
1 | 3.39 min |  | O=C(O)CNC(=O)c1ccccc1 [Hippuric acid]
2 | 3.7 min |  | COn1cc(CN)c2ccccc21 [1-MeO-I3CH2NH2]
3 | 8.94 min |  | CC(CCC(=O)O)C1CCC2C3C(O)CC4CC(O)CCC4(C)C3CC(O)C12C (stereo not given) [Cholic acid]
4 |  | 10.7 min | CC(CCC(=O)O)C1CCC2C3CCC4CC(O)CCC4(C)C3CC(O)C12C (stereo not given)
5 |  | 0.643 min | CSCCC(N)C(=O)O (stereo not given)
6 |  | 6.61 min | CC12CCC(=O)C=C1CCC1C2C(=O)CC2(C)C1CCC2(O)C(=O)CO (stereo not given)
7 | 3.6 min |  | CC(C)CC(N)C(=O)NC(CC(C)C)C(=O)O (stereo not drawn) [H-Leu-Leu-OH]
8 |  | 0.525 min | Nc1ncnc2nc[nH]c12
9 | 7.92 min |  | CC(CCC(=O)NCC(=O)O)C1CCC2C3C(O)CC4CC(O)CCC4(C)C3CC(O)C12C (stereo not given) [Glycocholic acid]
10 |  | 1.14 min | O=C(O)CCCC(=O)O
11 |  | 4.6 min | CSCCCCCCCC(N)C(=O)O (stereo not given)
12 | 8.1 min |  | CS(=O)CCCCCCCCN=C=S (stereo not drawn) [8-MeSO-Octyl-NCS]
13 |  | 2.3 min | NCC(=O)NC(Cc1ccccc1)C(=O)O (stereo not given)
14 |  | 3.2 min | CC(C)CC(NC(=O)C(N)Cc1ccc(O)cc1)C(=O)O (stereo not given)
15 | 1.14 min |  | O=C(O)CCCC(=O)O [Glutaric acid]
16 | 1.1 min |  | Nc1nc2c(ncn2C2OC(CO)C(O)C2O)c(=O)[nH]1 (stereo not given) [Guanosine]
17 |  | 1.6 min | Cc1cn(C2CC(O)C(CO)O2)c(=O)[nH]c1=O (stereo not given)
18 |  | 3.3 min | CC(C)C(N)C(=O)NC(Cc1ccccc1)C(=O)O (stereo not given)
19 |  | 4.5 min | COc1cc2ccc(=O)oc2cc1O
20 |  | 0.643 min | O=c1[nH]c(=O)c2[nH]c(=O)[nH]c2[nH]1
21 |  | 4.37 min | O=C(O)C(O)Cc1ccccc1 (stereo not given)
22 |  | 0.795 min | CC(C)CC(N)C(=O)O (stereo not given)

Row | LC retention time [1] | LC retention time [2] | Compound
23 | 0.457 min |  | NC(=O)NCCCC(N)C(=O)O (stereo not given) [Citrulline]
24 |  | 8.94 min | CC(CCC(=O)O)C1CCC2C3C(O)CC4CC(O)CCC4(C)C3CC(O)C12C (stereo not given)
25 |  | 0.446 min | NCCS(=O)(=O)O
26 | 4.1 min |  | CC(C)CC(NC(=O)C(N)Cc1ccccc1)C(=O)O (stereo not drawn) [H-Phe-Leu-OH]
27 |  | 6.56 min | CC12CCC(=O)C=C1CCC1C2C(O)CC2(C)C1CCC2(O)C(=O)CO (stereo not given)
28 | 5.4 min |  | CSCCCCCCCCC(N)C(=O)O (stereo not given) [Hexahomo-Met]
29 | 5.6 min |  | COc1cc(CC2COC(c3ccc(O)c(OC)c3)C2CO)ccc1O (stereo not given) [Lariciresinol]
30 |  | 3.39 min | O=C(O)CNC(=O)c1ccccc1
31 |  | 3.7 min | COn1cc(CN)c2ccccc21
32 |  | 0.687 min | O=C1CCC(C(=O)O)N1 (stereo not given)
33 |  | 3.46 min | Cn1c(=O)c2c(ncn2C)n(C)c1=O
34 | 3.46 min |  | Cn1c(=O)c2c(ncn2C)n(C)c1=O [Caffeine]
35 |  | 1.7 min | NC(Cc1ccccc1)C(=O)NCC(=O)O (stereo not given)
36 | 3 min |  | COc1cc(C=CCO)ccc1OC1OC(CO)C(O)C(O)C1O (stereo not given) [Coniferin]
37 |  | 0.413 min | NC(N)=NCCCC(N)C(=O)O (stereo not given)
38 | 6.56 min |  | CC12CCC(=O)C=C1CCC1C2C(O)CC2(C)C1CCC2(O)C(=O)CO (stereo not given) [hydrocortisone, cortisol]
39 |  | 3.1 min | O=C(O)C1Cc2c([nH]c3ccccc23)CN1 (stereo not given)
40 | 1.95 min |  | Nc1ccc(C(=O)O)cc1 [paba]
41 |  | 8.1 min | CS(=O)CCCCCCCCN=C=S (stereo not given)
42 | 4.37 min |  | O=C(O)C(O)Cc1ccccc1 (stereo not given) [phenyllactic acid]
43 | 3.3 min |  | CC(C)C(N)C(=O)NC(Cc1ccccc1)C(=O)O (stereo not drawn) [H-Val-Phe-OH]
44 | 2.33 min |  | O=C(O)CCCCC(=O)O [Adipic acid]

Row | LC retention time [1] | LC retention time [2] | Compound
45 |  | 3 min | CC(C)C(NC(=O)C(N)Cc1ccccc1)C(=O)O (stereo not given)
46 | 0.482 min |  | O=C(O)C1CCCN1 (stereo not given) [Proline]
47 | 0.839 min |  | O=c1[nH]cnc2c1ncn2C1OC(CO)C(O)C1O (stereo not given) [Inosine]
48 | 2.3 min |  | NCC(=O)NC(Cc1ccccc1)C(=O)O (stereo not drawn) [H-Gly-Phe-OH]
49 |  | 0.407 min | Cn1cnc(CC(N)C(=O)O)c1 (stereo not given)
50 |  | 7.57 min | CC(CCC(=O)NCCS(=O)(=O)O)C1CCC2C3C(O)CC4CC(O)CCC4(C)C3CC(O)C12C (stereo not given)
51 |  | 0.795 min | CCC(C)C(N)C(=O)O (stereo not given)
52 | 3.3 min |  | CCC(C)C(NC(=O)C(N)CC(C)C)C(=O)O (stereo not drawn) [H-Leu-Ile-OH]
53 | 12 min |  | CCCCCCCCC=CCCCCCCCC(=O)OCC(O)COP(=O)([O-])OCC[N+](C)(C)C (stereo not given) [lysoPC(18:1(9Z)/0:0)]
54 |  | 4.7 min | O=C(O)c1c[nH]c2ccccc12
55 |  | 5.4 min | CSCCCCCCCCC(N)C(=O)O (stereo not given)
56 | 0.446 min |  | NCCS(=O)(=O)O [Taurine]
57 |  | 0.482 min | O=C(O)C1CCCN1 (stereo not given)
58 | 0.795 min |  | CC(C)CC(N)C(=O)O (stereo not given) [Leucine]
59 | 4.6 min |  | CSCCCCCCCC(N)C(=O)O (stereo not given) [Pentahomo-Met]
60 | 10.5 min |  | CC(CCC(=O)O)C1CCC2C3C(O)CC4CC(O)CCC4(C)C3CCC12C (stereo not given) [Chenodeoxycholic acid]
61 | 3.3 min |  | COc1cc2ccc(=O)oc2cc1OC1OC(CO)C(O)C(O)C1O (stereo not given) [Scopolin]
62 |  | 0.733 min | CC(C(=O)O)C(=O)O
63 |  | 3.1 min | CCC(C)C(N)C(=O)NC(C(=O)O)C(C)CC (stereo not given)
64 |  | 4.8 min | O=Cc1c[nH]c2ccccc12
65 |  | 11.6 min | CCCCCCCCCCCCCCCC(=O)OCC(O)COP(=O)([O-])OCC[N+](C)(C)C (stereo not given)
66 |  | 5.1 min | O=Cc1c[nH]c2cccc(O)c12

Row | LC retention time [1] | LC retention time [2] | Compound
67 | 0.638 min |  | O=c1cc[nH]c(=O)[nH]1 [Uracil]
68 | 2.8 min |  | CC(C)CC(N)C(=O)NC(Cc1ccc(O)cc1)C(=O)O (stereo not drawn) [H-Leu-Tyr-OH]
69 |  | 3.9 min | CCC(C)C(N)C(=O)NC(Cc1ccccc1)C(=O)O (stereo not given)
70 |  | 0.457 min | NC(=O)NCCCC(N)C(=O)O (stereo not given)
71 | 1.6 min |  | Cc1cn(C2CC(O)C(CO)O2)c(=O)[nH]c1=O (stereo not given) [Thymidine]
72 | 2.9 min |  | CCC(C)C(NC(=O)C(N)Cc1ccc(O)cc1)C(=O)O (stereo not drawn) [H-Tyr-Ile-OH]
73 | 4.2 min |  | CC(C)CC(N)C(=O)NC(Cc1ccccc1)C(=O)O (stereo not given) [H-Leu-Phe -OH]
74 | 0.407 min |  | Cn1cnc(C[C@H](N)C(=O)O)c1 [1-Methyl-L-Histidine]
75 |  | 3.92 min | Cc1cc2nc3c(=O)[nH]c(=O)nc-3n(CC(O)C(O)C(O)CO)c2cc1C (stereo not given)
76 |  | 0.839 min | O=c1[nH]cnc2c1ncn2C1OC(CO)C(O)C1O (stereo not given)
77 |  | 10.5 min | CC(CCC(=O)O)C1CCC2C3C(O)CC4CC(O)CCC4(C)C3CCC12C (stereo not given)
78 |  | 2.9 min | CCC(C)C(NC(=O)C(N)Cc1ccc(O)cc1)C(=O)O (stereo not given)
79 |  | 1.95 min | Nc1ccc(C(=O)O)cc1
80 |  | 12 min | CCCCCCCCC=CCCCCCCCC(=O)OCC(O)COP(=O)(O)OCC[N+](C)(C)C (stereo not given)
81 | 0.795 min |  | CCC(C)C(N)C(=O)O (stereo not given) [Isoleucine]
82 | 0.733 min |  | CC(C(=O)O)C(=O)O [Methylmalonic acid]
83 |  | 2.62 min | CC(C)CC(N)C(=O)N1CCCC1C(=O)O (stereo not given)
84 | 6.61 min |  | CC12CCC(=O)C=C1CCC1C2C(=O)CC2(C)C1CCC2(O)C(=O)CO (stereo not given) [Cortisone]
85 |  | 3.3 min | CCC(C)C(NC(=O)C(N)CC(C)C)C(=O)O (stereo not given)
86 |  | 4.1 min | CC(C)CC(NC(=O)C(N)Cc1ccccc1)C(=O)O (stereo not given)
87 |  | 2.33 min | O=C(O)CCCCC(=O)O
88 | 5.35 min |  | O=C(O)CCCCCCCC(=O)O [Azelaic acid]

Row | LC retention time [1] | LC retention time [2] | Compound
89 |  | 3.8 min | CCC(C)C(NC(=O)C(N)Cc1ccccc1)C(=O)O (stereo not given)
90 |  | 7.92 min | CC(CCC(=O)NCC(=O)O)C1CCC2C3C(O)CC4CC(O)CCC4(C)C3CC(O)C12C (stereo not given)
91 | 0.687 min |  | O=C1CCC(C(=O)O)N1 (stereo not given) [Pyroglutamic acid]
92 | 10.7 min |  | CC(CCC(=O)O)C1CCC2C3CCC4CC(O)CCC4(C)C3CC(O)C12C (stereo not given) [Deoxycholic acid]
93 |  | 3.4 min | CCC(C)C(N)C(=O)NC(CC(C)C)C(=O)O (stereo not given)
94 |  | 5.6 min | COc1cc(CC2COC(c3ccc(O)c(OC)c3)C2CO)ccc1O (stereo not given)
95 | 1.7 min |  | NC(Cc1ccccc1)C(=O)NCC(=O)O (stereo not drawn) [H-Phe-Gly-OH]
96 | 3.47 min |  | O=C(O)CCCCCC(=O)O [Pimelic acid]
97 |  | 3.6 min | CC(C)CC(N)C(=O)NC(CC(C)C)C(=O)O (stereo not given)
98 |  | 3.47 min | O=C(O)CCCCCC(=O)O
99 |  | 3.3 min | COc1cc2ccc(=O)oc2cc1OC1OC(CO)C(O)C(O)C1O (stereo not given)
100 | 0.643 min |  | CSCCC(N)C(=O)O (stereo not given) [Methionine]
101 |  | 5.35 min | O=C(O)CCCCCCCC(=O)O
102 |  | 4.2 min | CC(C)CC(N)C(=O)NC(Cc1ccccc1)C(=O)O (stereo not given)
103 |  | 1.1 min | Nc1nc2c(ncn2C2OC(CO)C(O)C2O)c(=O)[nH]1 (stereo not given)
104 |  | 3.2 min | COc1cc(C=CCO)cc(OC)c1OC1OC(CO)C(O)C(O)C1O (stereo not given)
105 |  | 0.638 min | O=c1cc[nH]c(=O)[nH]1
106 |  | 2.8 min | CC(C)CC(N)C(=O)NC(Cc1ccc(O)cc1)C(=O)O (stereo not given)
107 |  | 3 min | COc1cc(C=CCO)ccc1OC1OC(CO)C(O)C(O)C1O (stereo not given)
108 |  | 2.7 min | CC(C)CC(NC(=O)C(N)C(C)C)C(=O)O (stereo not given)

Row | Compound | LC retention time [1] | LC retention time [2]
109 | O=C(O)Cc1ccccc1 [Phenylacetic acid] | 3.6 min | 
110 | O=c1ccc2cc(OC3OC(CO)C(O)C(O)C3O)c(O)cc2o1 (stereo not given) |  | 2.9 min
111 | COc1cccc2[nH]cc(CN)c12 [4-MeO-I3CH2NH2] | 3.2 min | 
112 | NCc1c[nH]c2ccccc12 [Indol-3-ylmethylamine (I3CH2NH2)] | 1.8 min | 
113 | O=C(O)Cc1ccccc1 |  | 3.6 min
114 | NCc1c[nH]c2ccccc12 |  | 1.8 min
115 | COc1cccc2[nH]cc(CN)c12 |  | 3.2 min
